In brackets after ≈: the same amount, converted by molar mass.

Data on 34 compounds can be found in the Biogen ADME set (Fang et al. 2023).

For this series the following is noted: for aqueous solubility: pH 6.8.

As for `CC1CCC(O)(CSc2nnnn2C2CC2)CC1` (stereo not drawn), the MDR1-MDCK efflux ratio was found to be 0.616; the intrinsic clearance, human liver microsomes came to 12.7 mL/min/kg; the intrinsic clearance, rat liver microsomes was 355 mL/min/kg.
As for `CN(C)C(=O)C1(Cc2ccccc2-c2cccc(F)c2)CCN(C(=O)C2CC=CCC2)CC1` (stereo not drawn), the MDR1-MDCK efflux ratio was 1.46; the fraction unbound, human plasma amounted to 0.00787; the fraction unbound, rat plasma is 0.0139; the intrinsic clearance, human liver microsomes was 997 mL/min/kg. Besides, the intrinsic clearance, rat liver microsomes worked out at 2710 mL/min/kg.
Broadly, the aqueous solubility is the concentration that dissolves in the medium under given conditions. Read a high aqueous solubility as much dissolved substance. Consider `N#Cc1cc(-c2n[nH]c(-c3ccncc3)n2)ccn1`, for which the MDR1-MDCK efflux ratio came to 4.87; the intrinsic clearance, human liver microsomes amounted to 8.89 mL/min/kg; the intrinsic clearance, rat liver microsomes turned out to be 129 mL/min/kg; the aqueous solubility was determined as 14.3 µg/mL (≈ 57.5 µM).
On to `Cc1ccc(CNC(=O)CN2CCC(n3nnc4cc(C(F)(F)F)ccc43)CC2)cc1`, for which the intrinsic clearance, human liver microsomes was 41.4 mL/min/kg; the intrinsic clearance, rat liver microsomes amounted to 168 mL/min/kg; the aqueous solubility stood at 11.5 µg/mL (≈ 26.6 µM).
Compound `COc1ccc(-c2ccccc2)c(NS(=O)(=O)c2cc(O)c(Cl)cc2Cl)c1` yielded an aqueous solubility of 27.6 µg/mL (≈ 65 µM).
For the compound `N#CC[C@H](C1CCCC1)n1cc(-c2ncnc3[nH]ccc23)cn1`, the MDR1-MDCK efflux ratio is 10.9; the fraction unbound, human plasma worked out at 0.0428; the fraction unbound, rat plasma stood at 0.176; the intrinsic clearance, rat liver microsomes is 405 mL/min/kg. For the same compound, the aqueous solubility turned out to be 34.5 µg/mL (≈ 113 µM).
In the case of `CN(Cc1nc2ccccc2n1C)c1ccnc(-c2ccccc2)n1`, the intrinsic clearance, human liver microsomes was 105 mL/min/kg and the intrinsic clearance, rat liver microsomes came to 1740 mL/min/kg.
`O=C1CN(C(=O)c2ccc(Cl)cn2)CCN1CCc1ccccc1`: the MDR1-MDCK efflux ratio was found to be 1.1; the intrinsic clearance, human liver microsomes is 7.25 mL/min/kg; the intrinsic clearance, rat liver microsomes amounted to 499 mL/min/kg.
Take `CC1CN(C(=O)c2cccnc2N2CCOCC2)CC(c2ccccc2)O1` (stereo not drawn): the MDR1-MDCK efflux ratio is 5.22; the fraction unbound, human plasma amounted to 0.374; the fraction unbound, rat plasma is 0.359; the intrinsic clearance, human liver microsomes was 35.9 mL/min/kg. The compound further yielded an intrinsic clearance, rat liver microsomes of 554 mL/min/kg.
For the compound `CC(c1nnc(-c2cccs2)o1)N1CCC(n2c(=O)[nH]c3ccccc32)CC1` (stereo not drawn), the MDR1-MDCK efflux ratio came to 21.1; the intrinsic clearance, human liver microsomes turned out to be 18.1 mL/min/kg; the intrinsic clearance, rat liver microsomes was determined as 273 mL/min/kg; the aqueous solubility came to 56.9 µg/mL (≈ 144 µM).
As to `Clc1ccc(-c2ccc(CNCC3CCCO3)o2)c(Cl)c1` (stereo not drawn), the MDR1-MDCK efflux ratio was found to be 0.624; the intrinsic clearance, human liver microsomes turned out to be 55.4 mL/min/kg; the intrinsic clearance, rat liver microsomes worked out at 1050 mL/min/kg; the aqueous solubility was found to be 30.4 µg/mL (≈ 93.3 µM).
Take `Cc1nccc(-c2cccc(NCC(=O)NCC(=O)N3CCCC3)c2)n1`: the MDR1-MDCK efflux ratio is 43.4; the intrinsic clearance, human liver microsomes is at most 4.74 mL/min/kg; the intrinsic clearance, rat liver microsomes turned out to be 16.2 mL/min/kg; the aqueous solubility was determined as 69.5 µg/mL (≈ 197 µM).
The corresponding values for `N#CC1(C(=O)N2CCN(Cc3ccccn3)CC2)CCCCC1` are 1.11, 10.7 mL/min/kg, 805 mL/min/kg and 52.1 µg/mL (≈ 167 µM).
Taken in the same sequence, the figures for `Cc1cc(N)n(-c2ncnc3sc(C)c(-c4ccc(Cl)cc4)c23)n1` were 0.712, 94.2 mL/min/kg, 670 mL/min/kg and 6.32 µg/mL (≈ 17.8 µM).
`CN1N=C(SCc2ccc(Cl)cc2Cl)Sc2c1cnn(C)c2=O` registered an intrinsic clearance, human liver microsomes of 137 mL/min/kg and an intrinsic clearance, rat liver microsomes of 1890 mL/min/kg.
On to `CN(CCc1ccccc1)C(=O)CC#N`, for which the MDR1-MDCK efflux ratio is 0.666; the intrinsic clearance, human liver microsomes was at most 4.74 mL/min/kg; the intrinsic clearance, rat liver microsomes is at most 10.7 mL/min/kg; the aqueous solubility came to 32.5 µg/mL (≈ 161 µM).
The compound `O=C(CCCCCCC(=O)Nc1ccccc1)NO` displayed an intrinsic clearance, human liver microsomes of at most 4.74 mL/min/kg and an intrinsic clearance, rat liver microsomes of 27.4 mL/min/kg.
Regarding `Fc1ccccc1CNc1nc(-c2ccccc2)no1`, the MDR1-MDCK efflux ratio was 0.605; the intrinsic clearance, human liver microsomes amounted to 24.5 mL/min/kg; the intrinsic clearance, rat liver microsomes was 131 mL/min/kg; the aqueous solubility was 3.51 µg/mL (≈ 13 µM).
In the case of `CC1CCN(CC(=O)Nc2nc(-c3c[nH]c4ccccc34)cs2)CC1`, the MDR1-MDCK efflux ratio is 0.826; the intrinsic clearance, human liver microsomes came out at 37.9 mL/min/kg; the intrinsic clearance, rat liver microsomes is 315 mL/min/kg; the aqueous solubility turned out to be 5.19 µg/mL (≈ 14.6 µM).
Take `O=C(Nc1nc(-c2cccnc2)cs1)C1CCCCC1`: the MDR1-MDCK efflux ratio is 0.497 and the aqueous solubility is 0.21 µg/mL (≈ 0.731 µM).
`Cc1ccc(CNc2ncnn2C)nc1`: the MDR1-MDCK efflux ratio was 0.685; the intrinsic clearance, human liver microsomes is at most 4.74 mL/min/kg; the intrinsic clearance, rat liver microsomes is at most 10.7 mL/min/kg.
The compound `NC(=O)Cc1nc(-c2ccc(Cl)cc2Cl)cs1` gave an aqueous solubility of 41 µg/mL (≈ 143 µM).
Compound `O=C(c1cc(F)ccc1O)N1CCN(C2CCOCC2)CC1` showed an intrinsic clearance, human liver microsomes of at most 4.74 mL/min/kg and an intrinsic clearance, rat liver microsomes of 201 mL/min/kg.
Turning to `COC(=O)N[C@H](C)CNc1nccc(-c2cn(C(C)C)nc2-c2cc(Cl)cc(NS(C)(=O)=O)c2F)n1`, the MDR1-MDCK efflux ratio stood at 129; the intrinsic clearance, human liver microsomes was 14.7 mL/min/kg; the intrinsic clearance, rat liver microsomes amounted to 66.5 mL/min/kg.
`CN(c1ncc(Br)cn1)C1CCS(=O)CC1` (stereo not drawn): the MDR1-MDCK efflux ratio was 0.943; the intrinsic clearance, human liver microsomes is at most 4.74 mL/min/kg; the intrinsic clearance, rat liver microsomes was found to be 25.7 mL/min/kg; the aqueous solubility was 76.3 µg/mL (≈ 251 µM).
For `NCC1CCCC1NC(=O)c1cc(N2CCNC2=O)ccc1F` (stereo not drawn), the MDR1-MDCK efflux ratio was found to be 1.92; the fraction unbound, human plasma is 0.75; the intrinsic clearance, human liver microsomes was at most 4.74 mL/min/kg.
As to `Cc1ccc(-c2nc(CN3C(=O)C(=O)N(C4CCCC4)C3=O)cs2)cc1`, the MDR1-MDCK efflux ratio came out at 0.789 and the aqueous solubility is 0.26 µg/mL (≈ 0.704 µM).
With `Fc1ccc(-n2nc(C3CCOCC3)nc2-c2cn[nH]c2)c(F)c1`, the MDR1-MDCK efflux ratio turned out to be 19.6; the intrinsic clearance, human liver microsomes is at most 4.74 mL/min/kg; the intrinsic clearance, rat liver microsomes was 62.7 mL/min/kg; the aqueous solubility was found to be 25.9 µg/mL (≈ 78.1 µM).
As to `COc1cccc(CN(C)c2cc(N3CCCC3)ncn2)n1`, the MDR1-MDCK efflux ratio stood at 0.683; the intrinsic clearance, human liver microsomes was 128 mL/min/kg; the intrinsic clearance, rat liver microsomes stood at 4460 mL/min/kg.
`CNCCN1CCC(OCc2ccccc2)CC1` displayed an intrinsic clearance, human liver microsomes of 46.5 mL/min/kg; an intrinsic clearance, rat liver microsomes of 143 mL/min/kg; an aqueous solubility of 55 µg/mL (≈ 222 µM).
`Cc1ccnc(N2CC(O)(c3ccc(F)cc3)C2)c1C#N`: the MDR1-MDCK efflux ratio stood at 0.696; the intrinsic clearance, human liver microsomes was 99.1 mL/min/kg; the intrinsic clearance, rat liver microsomes amounted to 3630 mL/min/kg.
Turning to `C[C@H]1NC(=O)N(CCc2nc(C(F)(F)F)cs2)C1=O`, the MDR1-MDCK efflux ratio worked out at 1.6; the intrinsic clearance, human liver microsomes is 5.83 mL/min/kg; the intrinsic clearance, rat liver microsomes came out at 24.8 mL/min/kg.
`CCn1c(=O)c2c(nc3n2CCN3c2cc(C)cc(C)c2)n(C)c1=O` had an aqueous solubility of 0.5 µg/mL (≈ 1.47 µM).
Turning to `O=C(CN1CCCN(c2ccc(C(F)(F)F)cn2)CC1)Nc1ccccc1Cl`, the MDR1-MDCK efflux ratio came to 1.03; the intrinsic clearance, human liver microsomes turned out to be 229 mL/min/kg; the intrinsic clearance, rat liver microsomes is 1650 mL/min/kg; the aqueous solubility worked out at 11 µg/mL (≈ 26.6 µM).
